Data set [1] deals with porcine pancreatic lipase. Nature of the data set: In vitro hydrolysis by porcine pancreatic lipase. In kind it is in vitro ADME. To be noted: 37° C., simulated intestinal micellar solution pH 6.5, up to 180 min. The method, then: To provide for higher throughput of experiments, unless otherwise stated, in vitro hydrolysis of TST related compounds was performed via incubation with porcine pancreatic lipase. This provides a more reproducible source of pancreatic enzymes, facilitates enhanced experimental throughput and is also a greater challenge than collected rat enzymes (since enzyme activity in rat intestinal fluid is low). Briefly, pancreatic lipase solution was prepared prior to the hydrolysis experiment by dispersion of 1 g porcine pancreatin in 5 ml of lipolysis buffer and 16.9 μl of 5M NaOH. The suspension was mixed well and centrifuged at 3500 rpm for 15 minutes at 5° C. to provide a supernatant. An amount of 1000 ml of lipolysis buffer was prepared with 0.474 g of tris-maleate (2 mM), 0.206 g of CaCl2.H2O (1.4 mM) and 8.775 g of NaCl (150 mM) adjusted with NaOH to pH 6.5. To assess the potential for prodrug hydrolysis in the intestine, 20 μl of prodrug solution (1 mg/ml dissolved in acetonitrile), 900 μl of simulated intestinal micellar solution [prepared with 0.783 g of NaTDC (3 mM) and 0.291 g of phosphatidyl choline (0.75 mM) in 500 ml lipolysis buffer] and 100 μl of enzyme solution were incubated at 37° C. 20 μl samples of the incubation solution were taken at 0, 5, 10, 15, 30, 60, 90, 120 and 180 minutes post incubation and added to 180 μl of ACN to stop lipolysis. The mixture was vortexed and centrifuged at 5000 rpm for 5 minutes to precipitate proteins prior to analysis. The supernatant was analysed by HPLC-MS for residual compound concentrations, and the potential products of compound hydrolysis were analysed.
On incubation with digestive enzymes the monoglycerides forms of the prodrugs are formed very rapidly. The stability in simulated intestinal conditions is therefore better assessed by the stability of the monoglycerides form that is generated by the initial digestion process. The monoglycerides form must remain intact to be absorbed and re-esterified in the enterocyte prior to entry into the lymphatics. […] This is consistent with the increase in lymphatic transport of Compound 18 when compared to Compound 10, and the high extent of lymphatic transport of Compound 16 in FIG. 4.

Data set [2] is described as follows: Pharmacokinetic study in rats, testosterone plasma concentrations after oral gavage. To be noted: for AUC0-24 h fold increase compared with TU group / Tmax / AUC0-24 h / Cmax: testosterone in plasma, oral gavage; for AUC0-24 h fold increase compared with TU group: dose-normalized; for Tmax / AUC0-24 h / Cmax: conscious carotid artery cannulated SD female rats; for AUC0-24 h / Cmax: normalized to 2 mg/kg equivalent testosterone dose. On the procedure: In order to assess the oral bioavailability of the compounds of the invention, pharmacokinetic studies were conducted in rats and dogs. […] The rats were then allowed to regain consciousness and fasted overnight prior to the commencement of experiments with free access to water. […] The oral formulation of Compound 2 contained 3 mg of the compound, 20 mg oleic acid and 12.5 mg Tween 80 dispersed in 1 mL PBS. Blood samples were collected from the carotid artery cannula from 5 min prior to administration up to 24 h post-dosing and centrifuged at 5000 rpm for 5 min to separate plasma. […] Plasma samples were stored at −80° C. prior to assay by HPLC-MS-MS. In this case samples were assayed for free drug (i.e. non-glyceride associated drug) and were not hydrolysed prior to assay (as was the case with the lymph samples).
FIG. 12 illustrates dose-normalized testosterone plasma concentrations following oral gavage of formulations to conscious, carotid artery cannulated female SD rats. Formulations contained 1 mg of TU, or 2 mg of compounds of the invention containing testosterone dispersed in 40 mg oleic acid, 25 mg Tween 80 and 2 ml PBS. Doses are normalized to a 2 mg/kg equivalent dose of testosterone. Data are shown as mean±SEM for all groups (n=4 or 3 for each group). The embedded figure is the plot of the dose-normalized plasma AUC0-24h (nmol×h/L) of testosterone in the form of a bar graph.

The conditions of data set [3]: for Transport of total TST derivatives in lymph (% of dose): mesenteric lymph-duct cannulated female SD rats, intraduodenal infusion 0-2 h, cumulative over 8 h; for Fold increase (compared with control group dosed with TU): lymphatic transport of total TST derivatives, female SD rats. The method, then:
Lipid formulations containing the compound of interest were then administered to the animals, the lymph collected and drug concentrations in the lymph subsequently quantified.
Lipid-based formulations of the compounds of the invention or control compounds were prepared as previously described (Trevaskis, N. L. et al., Pharmaceutical Research, 2005, 22(11), 1863-1870). Briefly, approximately 2 mg of the compound (1 mg in the case of Compound 35 and Compound 1), 40 mg oleic acid and 25 mg Tween 80 were mixed in a glass vial until equilibrated (gentle heat (below 50° C.) may be applied for a short period).
[…] This was to eliminate the potential for the relatively high and variable levels of endogenous testosterone in male rats interfering with the quantification of exogenously dosed testosterone. Rats (240-320 g) were maintained on a standard diet and fasted overnight with free access to water prior to experiments. Anaesthetised rats were placed on a heated pad at 37° C. and cannulas were inserted into the duodenum (for formulation administration and rehydration), mesenteric lymph duct (for lymph collection) and carotid artery (for blood collection) as previously described (Edwards et al. Advanced Drug Delivery Reviews 2001, 50(1), 45-60). Post-surgery, rats were re-hydrated for 0.5 h via intraduodenal infusion of normal saline at 2.8 mL/h. The lipid formulations were infused into the duodenum at 2.8 mL/h for 2 h, after which the infusion was changed to 2.8 mL/h normal saline for the remainder of the experiment. Lymph was continuously collected for 6 to 8 h into pre-weighed Eppendorf tubes containing 10 μL of 1,000 IU/mL heparin. The collection tubes were changed hourly and lymph flow was measured gravimetrically. Aliquots of hourly lymph samples were stored at −80° C. prior to assay.
Drug concentration in lymph is expressed as total drug and includes free drug and drug associated with different glycerides. This is assayed by hydrolysis of lymph (to liberate drug from any re-esterified glycerides) prior to assessment of free drug.
FIG. 1 illustrates the cumulative lymphatic transport of total testosterone related derivatives (% of administered dose) versus time in anaesthetised mesenteric lymph duct cannulated female SD rats following intraduodenal infusion of formulations from 0 to 2 h. Each Formulation contained 2 mg of the exemplified compound or the control, testosterone undecanoate (TU), dispersed in 40 mg oleic acid, 25 mg Tween 80 and 5.6 ml PBS.

[4] abbreviates: male, Sprague-Dawley, rat, in vivo.

We go through ten compounds from patent US11311512B2, “Lymph directing prodrugs” (priority 2014, dated 2022).

Broadly, the Tmax is the time from dosing to the highest level. By Cmax is commonly meant the highest concentration seen after dosing.

Values joined by “and” are separate entries in the source; they are usually repeats but may differ in a detail not shown here. Equal values may be shown once. Read-outs that look alike come from different tables or passages of the source.

As for `CCCCCCCCCCCCCCCC(=O)OCC(COC(=O)CCCCCCCCCCCCCCC)OC(=O)CCCCC(=O)OCO[C@H]1CC[C@H]2[C@@H]3CCC4=CC(=O)CC[C@]4(C)[C@H]3CC[C@]12C` [Compound 21, 1,3-Bis(palmitoyloxy)propan-2-yl (((8R,9S,10R,13S,14S,17S)-10,13-dimethyl-3-oxo-2,3,6,7-8,9,10,11,12,13,14-15,16,17-tetradecahydro-1H-cyclopenta[a]phenanthren-17-yl)oxy)methyl adipate], in data set [1], the “stability of the monoglyceride form during in vitro incubation with porcine pancreatic lipase” value (“stability” for short) is listed as “lower than that of Compound 11”. Further, in data set [2] (SD female rats), the “AUC0-24 h fold increase compared with TU group” value (from here on “AUC0-24 h fold increase”) amounted to 44.0 fold. In data set [2], the Tmax was 0.7 ± 0.2 h, the AUC0-24 h came out at 0.2994 ± 0.1001 µM·h and the Cmax was found to be 232 ± 63.2 nM.
The corresponding values for `CCCCCCCCCCCCCCCC(=O)OCC(COC(=O)CCCCCCCCCCCCCCC)OC(=O)CC(C)CCCCCCC(=O)Oc1cc(C)cc(C)c1C(C)(C)CC(=O)O[C@H]1CC[C@H]2[C@@H]3CCC4=CC(=O)CC[C@]4(C)[C@H]3CC[C@]12C` (stereo partly drawn) [Compound 27] are “remarkably stable”, 106.4 fold, 1.5 ± 0.5 h, 0.7238 ± 0.0905 µM·h and 428 ± 97.8 nM.
The corresponding values for `CCCCCCCCCCCCCCCC(=O)OCC(COC(=O)CCCCCCCCCCCCCCC)OC(=O)CC(C)CC(=O)Oc1cc(C)cc(C)c1C(C)(C)CC(=O)O[C@H]1CC[C@H]2[C@@H]3CCC4=CC(=O)CC[C@]4(C)[C@H]3CC[C@]12C` (stereo partly drawn) [Compound 25] are “remarkably stable”, 58.5 fold, 0.9 ± 0.1 h, 0.3992 ± 0.0432 µM·h and 419 ± 63.3 nM.
As to `CCCCCCCCCCCCCCCC(=O)OCC(COC(=O)CCCCCCCCCCCCCCC)OC(=O)CCCCC(=O)O[C@H]1CC[C@H]2[C@@H]3CCC4=CC(=O)CC[C@]4(C)[C@H]3CC[C@]12C` [Compound 11], in data set [3] (anaesthetised), the “Transport of total TST derivatives in lymph (% of dose)” value is 17.0 ± 1.6 % of dose. Moreover, the “Fold increase (compared with control group dosed with TU)” value in data set [3] (intraduodenal infusion) was 9.0 fold. Also, the “stability” value in data set [1] is given as “not highly stable”. In addition, the “systemic exposure of parent testosterone (dose-normalised plasma AUC0-24h), fold greater than after Compound 41 or Compound 10” value in data set [2] (oral administration, SD female rats) stood at 10 fold. Moreover, in data set [2] (SD female rats), the “AUC0-24 h fold increase” value was 12.4 fold. In addition, in data set [2], the Tmax is listed as 1.3 ± 0.1 h, the AUC0-24 h stood at 0.0842 ± 0.0093 µM·h and the peak concentration (Cmax) turned out to be 69.9 ± 8.2 nM.
`CCCCCCCCCCCCCCCC(=O)OCC(COC(=O)CCCCCCCCCCCCCCC)OC(=O)C(C)CCCCCCCC(=O)O[C@H]1CC[C@H]2[C@@H]3CCC4=CC(=O)CC[C@]4(C)[C@H]3CC[C@]12C` (stereo partly drawn) [Compound 16]: in data set [3] (anaesthetised), the “Transport of total TST derivatives in lymph (% of dose)” value is on record as 23.2 ± 2.3 % of dose. The “Fold increase (compared with control group dosed with TU)” value in data set [3] (intraduodenal infusion) came out at 12.3 fold. Further, the “stability” value in data set [1] is on record as “significantly stabilised the monoglyceride intermediates”. Also, the “AUC0-24 h fold increase” value in data set [2] (SD female rats) is 15.8 fold. In addition, in data set [2], the Tmax amounted to 1.3 ± 0.1 h, the AUC0-24 h worked out at 0.1076 ± 0.014 µM·h and the Cmax is 77 ± 14.2 nM.
Regarding `CCCCCCCCCCCCCCCC(=O)OCC(COC(=O)CCCCCCCCCCCCCCC)OC(=O)CCCCCCCCC(=O)Oc1cc(C)cc(C)c1C(C)(C)CC(=O)O[C@H]1CC[C@H]2[C@@H]3CCC4=CC(=O)CC[C@]4(C)[C@H]3CC[C@]12C` [Compound 26], in data set [2], the Tmax amounted to 1.1 ± 0.1 h, the AUC0-24 h came to 0.6173 ± 0.1778 µM·h and the Cmax was determined as 487 ± 134 nM.
Take `CCCCCCCCCCCCCCCC(=O)OCC(COC(=O)CCCCCCCCCCCCCCC)OC(=O)CCCC(=O)O[C@H]1CC[C@H]2[C@@H]3CCC4=CC(=O)CC[C@]4(C)[C@H]3CC[C@]12C` [Compound 10]: the “Transport of total TST derivatives in lymph (% of dose)” value in data set [3] (anaesthetised) is given as 14.5 % of dose. In addition, the “Fold increase (compared with control group dosed with TU)” value in data set [3] (intraduodenal infusion) was found to be 7.7 fold. The “AUC0-24 h fold increase” value in data set [2] (SD female rats) is 2.8 fold and 2.9 fold. Also, in data set [2], the Tmax is 1.0 ± 0.0 h and 1.1 ± 0.1 h; the AUC0-24 h is 0.0191 ± 0.0024 µM·h and 0.0196 ± 0.0008 µM·h; the Cmax is 19 nM and 13.7 nM.
On to `CCCCCCCCCCCCCCCC(=O)OCC(COC(=O)CCCCCCCCCCCCCCC)OC(=O)CCCCCCCCC(=O)Oc1cc(C)cc(C)c1C(C)(C)CC(=O)NS(=O)(=O)c1ccc(-n2nc(C(F)(F)F)cc2-c2ccc(C)cc2)cc1` [Compound 5], for which the “Transport of total drug derivatives in lymph (% of dose)” value in data set [3] (anaesthetised, mesenteric lymph-duct cannulated male SD rats, intraduodenal infusion, MET, ATV, ASP, SER or CEL derivatives) is 15.7 ± 1.3 % of dose.
In the case of `CN[C@H]1CC[C@@H](c2ccc(Cl)c(Cl)c2)c2ccccc21` [SER, sertraline, reference compound], in data set [3] (setting [4]), the “Increase fold (compared with parent drug group)” value is on record as 1.0 fold and the “Transport of total drug derivatives in lymph (% of dose)” value is listed as 0.05 % of dose.
For the compound `CCCCCCCCCCCCCCCC(=O)OCC(COC(=O)CCCCCCCCCCCCCCC)OC(=O)CCCCC(=O)Oc1cc(C)cc(C)c1C(C)(C)CC(=O)O[C@H]1CC[C@H]2[C@@H]3CCC4=CC(=O)CC[C@]4(C)[C@H]3CC[C@]12C` [Compound 22, 1,3-Bis(palmitoyloxy)propan-2-yl (2-(4-(((8R,9S,10R,13S,14S,17S)-10,13-dimethyl-3-oxo-2,3,6,7,8,9,10,11,12,13-14,15,16,17-tetradecahydro-1H-cyclopenta[a]phenanthren-17-yl)oxy)-2-methyl-4-oxobutan-2-yl)-3,5-dimethylphenyl) adipate], in data set [2], the Tmax is given as 1.0 ± 0.0 h, the AUC0-24 h was found to be 0.2691 ± 0.0588 µM·h and the highest concentration (Cmax) worked out at 171 ± 27 nM.
